Measurements reported in ChEMBL document CHEMBL6115022, “The Heterogeneous Kinetic Origins of the Binding Properties of Orthosteric Ligands at Heteromeric Nicotinic Acetylcholine Receptors” (J Med Chem, 2025).

Columns and labels:
[1] = biological target: T1, Neuronal acetylcholine receptor; alpha4/beta2 (Homo sapiens, UniProt P17787+P43681); test: Displacement of [3H]epibatidine from human alpha4beta2 nAChR extracted from HEK293 cell membrane assessed as inhibition constant incubated for 240 mins by liquid scintillation counting method; assay type: cell membranes
[2] = biological target: T1, Neuronal acetylcholine receptor; alpha4/beta2; test: Displacement of [3H]epibatidine from human alpha4beta2 nAChR extracted from HEK293 cell membrane assessed as association binding constant (Kon) incubated for 240 mins by liquid scintillation counting method; assay type: cell membranes
[3] = biological target: T1, Neuronal acetylcholine receptor; alpha4/beta2; test: Displacement of [3H]epibatidine from human alpha4beta2 nAChR extracted from HEK293 cell membrane assessed as dissociation binding constant (Koff) incubated for 240 mins by liquid scintillation counting method; assay type: cell membranes
[4] = biological target: T1, Neuronal acetylcholine receptor; alpha4/beta2; test: Displacement of [3H]epibatidine from human alpha4beta2 nAChR extracted from HEK293 cell membrane assessed as residence time incubated for 240 mins by liquid scintillation counting method; assay type: cell membranes
[5] = biological target: T1, Neuronal acetylcholine receptor; alpha4/beta2; test: Displacement of [3H]epibatidine from human alpha4beta2 nAChR extracted from HEK293 cell membrane assessed as dissociation constant incubated for 240 mins by liquid scintillation counting method; assay type: cell membranes
[6] = biological target: T1, Neuronal acetylcholine receptor; alpha4/beta2; test: Displacement of [3H]epibatidine from human alpha4beta2 nAChR extracted from HEK293 cell membrane assessed as fold increase in association binding constant (Kon) incubated for 240 mins by liquid scintillation counting method relative to (+)-DHbetaE; assay type: cell membranes; settings: filed as antagonist
[7] = biological target: T1, Neuronal acetylcholine receptor; alpha4/beta2; test: Displacement of [3H]epibatidine from human alpha4beta2 nAChR extracted from HEK293 cell membrane assessed as fold increase in […] binding constant (Koff) incubated for 240 mins by liquid scintillation counting method relative to (+)-DHbetaE; assay type: cell membranes; settings: filed as antagonist
[8] = biological target: T2, Neuronal acetylcholine receptor; alpha3/beta4 (Rattus norvegicus, UniProt P04757+P12392); test: Displacement of [3H]epibatidine from rat alpha3beta4 nAChR extracted from HEK293 cell membrane assessed as inhibition constant incubated for 60 to 120 mins by liquid scintillation counting method; assay type: cell membranes
[9] = biological target: T3, Neuronal acetylcholine receptor; alpha3/beta4 (Rattus norvegicus) (UniProt P04757+P12392); test: Displacement of [3H]epibatidine from rat alpha3beta4 nAChR extracted from HEK293 cell membrane assessed as association binding constant (Kon) incubated for 60 to 120 mins by liquid scintillation counting method; assay type: cell membranes; settings: filed as agonist, time lower 60.0 min, time upper […]
[10] = biological target: T3, Neuronal acetylcholine receptor; alpha3/beta4 (Rattus norvegicus); test: Displacement of [3H]epibatidine from rat alpha3beta4 nAChR extracted from HEK293 cell membrane assessed as dissociation binding constant (Koff) incubated for 60 to 120 mins by liquid scintillation counting method; assay type: cell membranes; settings: filed as agonist, time lower 60.0 min, time upper […]
[11] = biological target: T3, Neuronal acetylcholine receptor; alpha3/beta4 (Rattus norvegicus); test: Displacement of [3H]epibatidine from rat alpha3beta4 nAChR extracted from HEK293 cell membrane assessed as residence time incubated for 60 to 120 mins by liquid scintillation counting method; assay type: cell membranes; settings: filed as agonist, time lower 60.0 min, time upper […]
[12] = biological target: T2, Neuronal acetylcholine receptor; alpha3/beta4; test: Displacement of [3H]epibatidine from rat alpha3beta4 nAChR extracted from HEK293 cell membrane assessed as dissociation constant incubated for 60 to 120 mins by liquid scintillation counting method; assay type: cell membranes
[13] = Selectivity index, ratio of Ki for displacement of [3H]epibatidine from rat alpha3beta4 nAChR extracted from HEK293 cell membrane to Ki for displacement of [3H]epibatidine from human alpha4beta2 nAChR extracted from HEK293 cell membrane
[14] = Selectivity index, ratio of K(on) for displacement of [3H]epibatidine from human alpha4beta2 nAChR extracted from HEK293 cell membrane to K(on) for displacement of [3H]epibatidine from rat alpha3beta4 nAChR extracted from HEK293 cell membrane
[15] = Selectivity index, ratio of K(off) for displacement of [3H]epibatidine from human alpha4beta2 nAChR extracted from HEK293 cell membrane to K(off) for displacement of [3H]epibatidine from rat alpha3beta4 nAChR extracted from HEK293 cell membrane

T1 sequence (P17787 whole entry): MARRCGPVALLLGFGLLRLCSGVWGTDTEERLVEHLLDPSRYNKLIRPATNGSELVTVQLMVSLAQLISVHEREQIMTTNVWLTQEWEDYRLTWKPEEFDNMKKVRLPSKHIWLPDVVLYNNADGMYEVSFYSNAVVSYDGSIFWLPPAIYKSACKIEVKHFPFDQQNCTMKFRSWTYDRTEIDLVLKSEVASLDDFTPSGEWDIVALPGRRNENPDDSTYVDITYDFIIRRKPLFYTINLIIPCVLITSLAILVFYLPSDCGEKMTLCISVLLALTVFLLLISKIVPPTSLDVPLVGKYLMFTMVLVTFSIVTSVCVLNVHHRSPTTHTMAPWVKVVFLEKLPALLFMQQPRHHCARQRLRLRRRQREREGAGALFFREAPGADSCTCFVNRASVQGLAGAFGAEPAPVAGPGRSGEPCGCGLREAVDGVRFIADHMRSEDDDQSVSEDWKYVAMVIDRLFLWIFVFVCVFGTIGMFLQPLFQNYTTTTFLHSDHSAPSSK
T1 sequence (P43681 whole entry): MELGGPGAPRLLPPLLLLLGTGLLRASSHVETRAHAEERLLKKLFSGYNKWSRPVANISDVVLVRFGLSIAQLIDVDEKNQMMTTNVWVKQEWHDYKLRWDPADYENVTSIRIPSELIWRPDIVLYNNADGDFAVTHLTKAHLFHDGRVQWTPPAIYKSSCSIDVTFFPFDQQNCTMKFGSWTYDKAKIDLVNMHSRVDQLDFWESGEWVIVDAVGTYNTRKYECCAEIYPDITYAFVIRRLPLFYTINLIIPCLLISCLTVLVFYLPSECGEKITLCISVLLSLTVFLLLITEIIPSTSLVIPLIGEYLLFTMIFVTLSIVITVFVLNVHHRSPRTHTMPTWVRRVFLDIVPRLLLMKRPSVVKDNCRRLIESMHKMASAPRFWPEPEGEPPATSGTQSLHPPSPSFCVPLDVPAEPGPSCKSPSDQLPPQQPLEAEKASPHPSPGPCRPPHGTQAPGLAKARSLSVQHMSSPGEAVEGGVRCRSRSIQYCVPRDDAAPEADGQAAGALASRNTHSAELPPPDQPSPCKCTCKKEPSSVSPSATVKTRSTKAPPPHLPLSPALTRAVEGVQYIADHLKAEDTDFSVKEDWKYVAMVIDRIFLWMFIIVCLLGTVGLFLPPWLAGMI
T2 sequence (P04757 whole entry): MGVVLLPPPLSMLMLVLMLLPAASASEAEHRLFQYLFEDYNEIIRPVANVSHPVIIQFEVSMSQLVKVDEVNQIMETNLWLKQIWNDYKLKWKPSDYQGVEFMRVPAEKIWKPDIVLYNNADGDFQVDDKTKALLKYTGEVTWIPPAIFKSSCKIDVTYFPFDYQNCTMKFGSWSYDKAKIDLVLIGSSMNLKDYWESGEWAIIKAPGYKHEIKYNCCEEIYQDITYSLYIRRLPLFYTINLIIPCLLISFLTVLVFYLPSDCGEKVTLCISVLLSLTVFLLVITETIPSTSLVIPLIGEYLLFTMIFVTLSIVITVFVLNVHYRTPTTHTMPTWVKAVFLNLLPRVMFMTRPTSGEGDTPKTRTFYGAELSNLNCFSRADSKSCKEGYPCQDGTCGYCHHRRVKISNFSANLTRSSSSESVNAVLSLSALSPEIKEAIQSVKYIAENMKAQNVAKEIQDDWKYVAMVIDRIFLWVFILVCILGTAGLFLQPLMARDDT
T2 sequence (P12392 whole entry): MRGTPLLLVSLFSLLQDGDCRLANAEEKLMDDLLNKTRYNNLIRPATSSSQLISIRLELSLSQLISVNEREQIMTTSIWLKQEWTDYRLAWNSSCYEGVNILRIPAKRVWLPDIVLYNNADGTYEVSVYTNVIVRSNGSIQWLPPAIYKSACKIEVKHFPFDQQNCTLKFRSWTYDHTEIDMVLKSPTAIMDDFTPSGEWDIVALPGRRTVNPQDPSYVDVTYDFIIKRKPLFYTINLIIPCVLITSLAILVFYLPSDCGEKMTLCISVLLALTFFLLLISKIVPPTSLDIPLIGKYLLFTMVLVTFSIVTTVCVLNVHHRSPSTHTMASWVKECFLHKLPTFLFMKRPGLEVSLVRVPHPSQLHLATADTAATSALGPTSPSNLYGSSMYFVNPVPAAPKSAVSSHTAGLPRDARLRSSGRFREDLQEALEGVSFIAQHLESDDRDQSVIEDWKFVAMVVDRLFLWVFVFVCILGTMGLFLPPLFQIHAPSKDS

| Structure (SMILES) | Ki [1] | K ([2]; filed as antagonist) | K ([3]; filed as antagonist) | TIME ([4]; filed as antagonist) | Kd [5] | Ratio [6] | Ratio [7] | K ([2]; filed as agonist) | K ([3]; filed as agonist) | TIME ([4]; filed as agonist) | Ki [8] | K [9] | K [10] | TIME [11] | Kd [12] | Ratio Ki [13] | Ratio [14] | Ratio [15] |
| --- | --- | --- | --- | --- | --- | --- | --- | --- | --- | --- | --- | --- | --- | --- | --- | --- | --- | --- |
| CO[C@H]1CC=C2CCN3CCc4ccc(O)cc4[C@]23C1 | 3.1 nM | 750000 M⁻¹ s⁻¹ | 0.12 min⁻¹ | 0.15 h | 2.9 nM | 130 | 13 |  |  |  |  |  |  |  |  |  |  |  |
| CCOc1cncc(/C=C/CCNC)c1 | 0.8 nM |  |  |  | 1.7 nM |  |  | 4.83e+06 M⁻¹ s⁻¹ | 0.57 min⁻¹ | 0.0417 h | 25000 nM | 0.064 10^-3/nM/min | 0.77 min⁻¹ | 0.0283 h | 12000 nM | 7000 |  |  |
| CO[C@H]1CC=C2CCN3CCC4=C(CC(=O)OC4)[C@]23C1 |  | 0.3 10^-3/nM/min | 0.01 min⁻¹ | 1.87 h |  |  |  |  |  |  |  |  |  |  |  |  |  |  |
| O=c1cccc2n1C[C@@H]1CNC[C@H]2C1 [CYTISINICLINE] | 0.2 nM |  |  |  | 0.21 nM |  |  | 4.33e+06 M⁻¹ s⁻¹ | 0.05 min⁻¹ | 0.367 h | 110 nM | 33300 M⁻¹ s⁻¹ | 0.24 min⁻¹ | 0.075 h | 150 nM | 150 |  |  |
| OCCCCC#Cc1cncc(OC[C@@H]2CCN2)c1 | 0.017 nM |  |  |  | 0.006 nM |  |  | 1.12e+07 M⁻¹ s⁻¹ | 0.004 min⁻¹ | 4.5 h | 2200 nM | 0.2 10^-3/nM/min | 0.39 min⁻¹ | 0.0467 h | 2200 nM | 7000 | 3000 | 100 |
| C[N+](C)(C)CCOC(N)=O [CARBAMOYLCHOLINE] | 56 nM |  |  |  | 200 nM |  |  | 16700 M⁻¹ s⁻¹ | 0.25 min⁻¹ | 0.09 h | 2000 nM | 0.31 10^-3/nM/min | 0.33 min⁻¹ | 0.06 h | 1500 nM | 8 |  |  |
| Clc1ccc(C2CC3CCC2N3)cn1 (racemic) |  |  |  |  |  |  |  | 2.17e+07 M⁻¹ s⁻¹ | 0.012 min⁻¹ | 1.4 h |  | 2.17e+07 M⁻¹ s⁻¹ | 0.17 min⁻¹ | 0.103 h |  |  |  |  |
| Cc1ncccc1OC[C@@H]1CCCN1 [POZANICLINE] |  |  |  |  |  |  |  | 517000 M⁻¹ s⁻¹ | 0.23 min⁻¹ | 0.0783 h | 10000 nM | 0.03 10^-3/nM/min | 0.44 min⁻¹ | 0.04 h | 17000 nM |  |  |  |
| CN1CCC[C@H]1c1cccnc1 |  |  |  |  |  |  |  | 3.83e+06 M⁻¹ s⁻¹ | 0.27 min⁻¹ | 0.0683 h |  | 33300 M⁻¹ s⁻¹ | 0.3 min⁻¹ | 0.0683 h |  |  |  |  |
